# Measurements published in PubChem BioAssay AID489024 (Sanford-Burnham Center for Chemical Genomics, 2010).
# Active and inactive are the calls of the source.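 Rule for the calls: active = compounds whose mean EC50, the dose giving half the maximal reporter activation, is at or below a set limit; inactive = the rest.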
# Biological target: CHO-CHOP luciferase reporter, UPR activation, luminescence
# Test: activators of PERK-eIF2a-CHOP UPR arm, confirmation, CHO-CHOP cells, luciferase luminescence (AID 489024);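 note: compounds added alone to reporter cells with no tunicamycin stress co-treatment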
row,SMILES,EC50
1,Cc1ccc(-c2nc(NC(=O)c3nn(C)cc3[N+](=O)[O-])sc2C)cc1C,6.33 µM
2,O=C(N/N=C(\c1ccccc1)c1cccnc1)c1cccc(F)c1,9.74 µM
3,Cc1nc2ccccc2n1-c1nc(-c2ccco2)cc(C(F)(F)F)n1,6.76 µM
4,C/C(=N\NC(=O)c1ccc(Cl)cc1)c1ccccn1,8.06 µM
5,Cn1c(=O)c2c(SCC(=O)Nc3ccccc3F)nc(-c3ccccc3F)nc2n(C)c1=O,12.6 µM
6,Cc1cccc(-n2c(/C=C/c3ccc([N+](=O)[O-])o3)nc3ccccc3c2=O)c1,11.7 µM
7,CC1=NN(c2cccc(C(=O)O)c2)C(=O)/C1=C\C=C/c1ccccc1,11.7 µM
8,CN(C(=O)CSc1cc(C(=O)c2nccn2C)c2ccccc2n1)c1ccccc1,7.96 µM
9,O=C(N/N=C/c1ccccn1)c1cc(-c2ccc(Br)cc2)nc2ccccc12,2.4 µM
10,CSc1nnc(NC(=O)c2nc(S(=O)(=O)Cc3ccccc3F)ncc2Cl)s1,> 80 µM (inactive)
11,Cc1ccc(Sc2ccc(/C=C3/C(=O)NN(c4ccccc4)C3=O)o2)cc1,inactive
12,COc1c(Cl)cc(Cl)cc1/C=C/C(=O)c1ccc(NC(=O)c2cccs2)cc1,4.63 µM
13,Cc1cccnc1Nc1nc(-c2ccc(O)c(O)c2)cs1,3.48 µM
14,Oc1ccc(/C=N/Nc2ccnc3cc(Cl)ccc23)cc1O,6.62 µM
15,O=C(NCCc1ccc(F)cc1)c1coc(=O)c(Br)c1,9.53 µM
16,COc1ccc(N=c2oc3ccc(OC)cc3cc2-c2nc3ccccc3[nH]2)cc1,11.7 µM
17,Oc1c(Cl)cc(CN2CCCCC2)c2cccnc12,15.2 µM
18,Cc1cc(C(=O)CCl)c(C)n1CCc1ccc(Cl)cc1,7.15 µM
19,COc1ccc(OC)c(/C=C/C(=O)N2C(=O)c3cccc(N)c3C2=O)c1,inactive
20,Cc1noc2ncnc(Sc3ccc(Br)cc3)c12,9.31 µM
21,COc1cccc2sc(Nc3nnc(-c4cccs4)o3)nc12,6.83 µM
22,O=C(/C(=C/c1cccc(Cl)c1)c1nc2ccccc2[nH]1)c1ccccc1,6.66 µM

row,SMILES,EC50
1,O=c1cc(C(Cl)(Cl)Cl)oc2c1ccc1ccccc12,> 80 µM (inactive)
2,CC(C)c1ccc(/C=C(\c2nc3ccccc3[nH]2)S(=O)(=O)c2ccccc2)cc1,9.49 µM
3,COC(=O)c1ccc(-n2c(C)cc(C(=O)CCl)c2C)cc1,4.62 µM
4,CCCCOc1ccc(N2C(=O)CC(N(O)c3ccccc3)C2=O)cc1 (stereo unspecified),7.25 µM
5,O=C(Cn1ncc(Cl)c(Cl)c1=O)c1ccc2c(c1)OCCO2,13.4 µM
6,O=C(N/N=C/c1cccc([N+](=O)[O-])c1)c1cc2c(ccc3ccccc32)o1,> 80 µM (inactive)
7,CC(C)(C)c1ccc(/C=C(\c2nc3ccccc3[nH]2)S(=O)(=O)c2ccccc2)cc1,7.17 µM
8,O=C1C=CC(=O)C(C2=C3C(=O)N(CCc4ccccc4)CC(=O)N3CCC2)=C1,9.95 µM
9,Brc1ccccc1CN1CCN(Cc2c[nH]c3ccccc23)CC1,7.72 µM
10,O=C(NCc1ccccc1Br)c1cccc2c1C(=O)c1ccc(-c3ccc(OC(F)(F)F)cc3)cc1S2(=O)=O,12.7 µM
11,O=C(N/N=C/c1ccccn1)c1cc(-c2ccccc2)nc2ccccc12,5.91 µM
12,O=C1NC(=O)N(Cc2ccccc2Cl)C(=O)/C1=C/c1cccs1,15.9 µM
13,O=CC1=C(c2ccccc2)Oc2ccccc2O1,12.2 µM
14,S=C1SCN(Cc2ccccn2)CN1Cc1ccco1,> 80 µM (inactive)
15,COc1ccc(CCNC(=O)c2coc(=O)c(Br)c2)cc1,7.26 µM
16,COc1ccc(C(=O)Cn2c(C(=O)/C=C/c3ccccc3)nc3ccccc32)cc1,10.1 µM
17,O=C(NCCc1ccccc1)c1coc(=O)c(Br)c1,7.83 µM
18,Cc1cc(N2CCN(c3ccc([N+](=O)[O-])c4cccnc34)CC2)c2ccccc2n1,inactive
19,CCc1nn(-c2cc(Oc3cccc4ccccc34)nc(-c3ccccc3)n2)c(N)c1C#N,inactive
20,CCc1cc(C(=O)c2ccc(C)cc2)c(NC(=O)CCl)s1,13.5 µM
21,CN(/N=C\c1ccc(O)c(O)c1)c1nc(-c2ccccc2)cc(-c2ccccc2)n1,1.32 µM
22,CCOC(=O)c1c(C)oc2c1c(C(c1cccnc1)N1CCOCC1)c(O)c1ccccc12 (stereo unspecified),16.8 µM

row,SMILES,EC50
1,O=C(CSC(=S)N1CCCC1)c1cc(Br)cc(Br)c1O,inactive
2,COc1ccc(NS(=O)(=O)c2ccc3ccccc3c2)c2ncccc12,9.28 µM
3,COc1cc(/C=C(/C#N)c2nc3ccccc3[nH]2)ccc1OCC(=O)Nc1ccccc1C,3.65 µM
4,CCc1ccc(-n2c(SCC(=O)c3ccc4c(c3)NC(=O)CO4)nc3ccccc3c2=O)cc1,12.9 µM
5,OCCNc1nc(Nc2ccc(Cl)c(Cl)c2)nc2ccccc12,11.7 µM
6,COc1ccc(CNC[C@@H](CCCCN(C)Cc2ccc(OC)cc2)N2C[C@H](c3ccccc3)N(CCc3ccc(Cl)c(Cl)c3)C(=O)C2=O)cc1,7.73 µM
7,Cc1cc(C(=O)CCl)c(C)n1CCc1ccccc1,7.91 µM
8,CC(C)c1ccc(NC(=O)/C(C#N)=C/c2ccncc2)cc1,13.6 µM
9,CC(C)N1C/C(=C/c2ccsc2)C(=O)/C(=C/c2ccsc2)C1,7.08 µM
10,O=C(/C=C/c1ccc(O)c(O)c1)c1ccccc1O,4.64 µM
11,O=[N+]([O-])c1ccc2nc(Cl)nc(-c3ccccc3)c2c1,12.5 µM
12,Cc1ccc(NN2C(=O)C=C(c3ccccc3)C2=O)cc1,14.5 µM
13,CCOc1cc(/C=C2\CN(CC)C/C(=C\c3ccc(O)c(OCC)c3)C2=O)ccc1O,6.25 µM
14,O=C(CN(c1cccc(C(F)(F)F)c1)S(=O)(=O)c1ccc(Cl)c([N+](=O)[O-])c1)NCc1ccc(F)cc1,11.7 µM
15,CCOC(=O)c1sc(N(Cc2ccccc2)C(=O)CCl)nc1C,7.96 µM
16,CCc1nnc(NC(=O)c2nc(S(=O)(=O)Cc3ccc(C)cc3)ncc2Cl)s1,> 80 µM (inactive)
17,Cn1cc(/C=C2\SC(=O)NC2=S)c2ccccc21,> 80 µM (inactive)
18,Oc1c(C(Nc2ccccn2)c2ccccn2)ccc2cccnc12 (stereo unspecified),12.3 µM
19,O=C(Oc1c(CN2CCOCC2)cc(Cl)c2cccnc12)c1ccccc1F,18.2 µM
20,CC[C@@H](C)[C@H](NC(=O)OC(C)(C)C)c1nnc(S(=O)(=O)Cc2cc(C)ccc2C)o1,15.5 µM
21,CCCCOC(=O)/C=C\C(=O)NC(N)=O,13.8 µM
22,Cc1cccc2sc(NC(=O)c3cc(S(=O)(=O)N(C)C)ccc3N3CCCC3)nc12,inactive

row,SMILES,EC50
1,COc1ccc(N=c2oc3c(OC)cccc3cc2C(=O)NCc2ccco2)c(OC)c1,inactive
2,COc1ccc(C(=O)/C=C2/C(=O)Nc3ccccc32)c(OC)c1,8.48 µM
3,CCCCCCCCCn1c2c(c(=N)c3c1CCC3)CCCC2,11.3 µM
4,O=C(/C(=N/N=C/c1ccc(O)c(O)c1)c1ccccc1)c1ccccc1,7.97 µM
5,CC1(C)CC(=O)C(=Cc2cn(-c3ccccc3)nc2-c2ccccc2)C(=O)C1,inactive
6,CC1=C(CC/C(C)=N/NC(N)=S)C(C)(C)CCC1,19.8 µM
7,O=C1Nc2ccccc2/C1=C\C(=O)c1ccccc1,14.2 µM
8,Cc1ccc(NC(=O)COc2ccc(/C=C3/SC(=Nc4ccccc4)N(Cc4cccnc4)C3=O)cc2)cc1,inactive
9,CCn1cc(C(=O)NC(=S)Nc2sc3c(c2C(=O)OC)CCCCCC3)cn1,inactive
10,COC(=O)[C@@H]1[C@@H](C#N)C2(c3ccccc3-c3ccccc32)N(c2ccc(Cl)cc2)N1C#N,13 µM
11,CCOC(=O)c1cnc(Nc2nc3ccccc3o2)nc1CSC(=S)N(CC)CC,0.91 µM
12,N#Cc1ccc(N/N=C/c2cn(-c3ccccc3)nc2-c2ccccc2)c([N+](=O)[O-])c1,> 80 µM (inactive)
13,FC(F)(F)c1nnc2c(Sc3ccccc3)nc3ccc(Cl)cc3n12,3.97 µM
14,CC(=O)/C(=N\Nc1ccc(Cl)cc1Cl)Sc1cccc2cccnc12,3.26 µM
15,O=C1/C(=C/c2ccccc2[N+](=O)[O-])COc2ccccc21,6.15 µM
16,Oc1ccc(-c2cn3ccccc3n2)cc1O,inactive
17,Cc1c(C(=O)c2cccc3ccccc23)c2cccc3c2n1[C@H](CN1CCOCC1)CO3,12.4 µM
18,COc1ccccc1-c1cc(C(F)(F)F)nc(S(C)(=O)=O)n1,9.21 µM
19,CCOC(=O)c1c2ccc(OCC(=O)N/N=C/c3ccc(C)cc3)cc2n2ccccc12,> 80 µM (inactive)
20,COc1ccc(-c2cc(C(F)(F)F)nc(S(C)(=O)=O)n2)cc1OC,9.31 µM
21,O=C(COc1ccc(/C=N/NC(=O)c2cc3ccccc3o2)cc1Br)Nc1ccccc1,3.83 µM
22,O=C(/C=C/c1ccc([N+](=O)[O-])cc1)/C=C/c1ccco1,6.61 µM

row,SMILES,EC50
1,S=C(Nc1ccccc1)c1ccccn1,9.11 µM
2,COc1cc(/C=C(/C(=O)c2cccs2)c2nc3ccccc3[nH]2)cc(OC)c1O,9.71 µM
3,CN(c1ccccc1)S(=O)(=O)c1cccc(C(=O)NCCc2ccc(O)c(O)c2)c1,7.53 µM
4,O=C(/C(=C/c1ccc(Cl)cc1)c1nc2ccccc2[nH]1)c1cccs1,4.6 µM
5,O=C(C[C@H]1C[C@H](C(=O)N2CCCCC2)[C@@]2(CCc3ccccc3)c3[nH]c4ccc(Cl)cc4c3CCN2C1=O)NCCC1=CCCCC1,inactive
6,CC(NC(=O)CN(c1cccc(C(F)(F)F)c1)S(=O)(=O)c1ccc(Cl)c([N+](=O)[O-])c1)c1ccccc1 (stereo unspecified),8.07 µM
7,CCOC(=O)c1cc(-c2ccc(/C=C3/C(=O)N(c4ccc(C(=O)O)cc4)N=C3C)o2)ccc1Cl,10.8 µM
8,CCOC(=O)c1ccc(-c2ccc(/C=N/NC(=O)CN(c3cccc(C)c3)S(C)(=O)=O)o2)cc1,20 µM
9,Cc1cc(C(=O)c2ccc(C(C)(C)C)cc2)c(NC(=O)CCl)s1,12.4 µM
10,O=c1c2ccccc2nc(/C=C/c2ccc([N+](=O)[O-])o2)n1-c1ccc(O)cc1,13.3 µM
11,Cc1ccc(CS(=O)(=O)c2ncc(Cl)c(C(=O)Nc3nnc(C(C)C)s3)n2)cc1,> 80 µM (inactive)
12,Cc1ccc(-c2nc(NC(=O)c3nn(C)cc3[N+](=O)[O-])sc2C)cc1,8.48 µM
13,Cc1cccc(CSc2cccc3cccnc23)c1,7.72 µM
14,CCOC(=O)c1cnc(Nc2nc3ccccc3o2)nc1CSC(=S)N1CCCCC1,1.3 µM
15,O=C(CCC(=O)Nc1ccc(Cl)cc1Cl)N/N=C/c1ccc([N+](=O)[O-])o1,12.9 µM
16,CCOC(=O)/C(=C\c1cccc(O)c1)c1nc2sc(C)c(C)c2c(=O)[nH]1,13 µM
17,Cc1nn(Cc2c(Cl)cccc2Cl)c(C)c1NC(=O)c1cn(-c2ccccc2)nc1-c1ccccc1,7.37 µM
18,CSc1nnc(NC(=O)c2nc(S(=O)(=O)Cc3ccc(C)cc3)ncc2Cl)s1,13.6 µM
